The nature of data set [1]: Water-solubility of allopurinol and prodrugs. The following applies: for solubility: water. On the procedure:
(§1) The water-solubility and lipophilicity of the allopurinol drugs
(§2) The apparent partition coefficients (P) for some allopurinol derivatives and allopurinol were measured using the widely used 1-octanol-water system. Similarly, the solubility of the derivatives in water or aqueous buffer solutions was determined.

How the values of data set [2] were obtained: as §1, §2
Data set [3] deals with rabbits. Nature of the data set: Intravenous administration to four rabbits, plasma levels. The following applies: i.v., 25 mg allopurinol equivalents. The data set is classed as in vivo, rabbit.
Data set [4] in a line: Comparative absorption study following peroral administration, urinary excretion. The data set is classed as in vivo. The following applies: urine, po, human, dose corresponding to 100 mg allopurinol, read-out: total urinary excretion of allopurinol and oxipurinol. The method, then:
A comparative absorption study was also made of allopurinol and the above mentioned prodrug following peroral administration. […] The total urinary excretion of allopurinol and oxipurinol was measured and found to correspond to 67% of the dose given for the allopurinol tablet and 92% for the preparation containing the prodrug derivative.

The conditions of data set [5]: cited from earlier work.
The conditions of data set [6]: intravenous (Breithaupt & Tittel, 1982); cited from earlier work.
Data set [7] deals with man. The following applies: rectal, various suppository preparations; cited from earlier work.
For data set [8], the system named is man. The following applies: cited from earlier work.
The nature of data set [9]: Bioavailability following rectal administration to rabbits (suppositories, micro-enemas). The following applies: rabbit, in vivo, 25 mg.
Experimental: (§7) The suppositories or micro-enemas were administered to rabbits. After drug administration, blood samples were taken at various times and the plasma fraction assayed for allopurinol and its major metabolite oxipurinol using the HPLC method described above.
Data set [10] concerns rabbits. Described as above. The following applies: rabbits, rectal suppositories, 25 mg allopurinol equivalents, all three blood sampling times.
Experimental: as §7
The nature of data set [11]: In-vitro cleavage of allopurinol derivatives to allopurinol in pH 7.4 buffer at 37° C. The data set is classed as physicochemical. The following applies: read-out: Half-time (t0.5) of the conversion to allopurinol, pH 7.4 buffer (converted). On the procedure: (§3) In-vitro cleavage of allopurinol derivatives
(§4) Solutions of various derivatives of allopurinol in aqueous buffer solutions or 80% human plasma solutions (pH 7.4) were kept at 37° C. The initial concentration of the derivatives was in the range 0.01-0.1 mg/ml. At various times an aliquot of the solutions was withdrawn and analyzed by HPLC for remaining derivative as well as for allopurinol. For the plasma solutions the aliquot withdrawn was deproteinized with ethanol or trichloroacetic acid and after centrifugation, the clear supernatant was injected on HPLC.
(§5) An HPLC method was used for the determination of allopurinol and its derivatives. In this method a reversed-phase LiChrosorb RP-8 column (250×4 mm) was eluated at ambient temperature with mixtures of methanol and 0.01M acetate buffer pH 4.5 or methanol and 0.03M phosphate buffer pH 7.0. The composition of the eluant was adjusted for each compound in order to provide an appropriate retention time. The flow rate was 1.2 ml/min and the column effluent was monitored spectrophotometrically at 252 nm or 274 nm. Quantitation of the compounds was done by measurement of peak heights.
(§6) The half-times of allopurinol formation from various derivatives at physiological conditions of pH and temperature are given in Table 2. It can be seen that in the presence of human plasma the rate of degradation is strongly accelerated, thus showing the susceptibility of the derivatives to undergo conversion into the parent active compound at conditions simiar to those prevailing in vivo.

A short description of data set [12]: In-vitro cleavage of allopurinol derivatives to allopurinol in 80% human plasma (pH 7.4) at 37° C. The data set is classed as in vitro ADME. The following applies: 80% plasma, pH 7.4, 37° C, read-out: Half-time (t0.5) of the conversion to allopurinol, 80% human plasma (converted). The method, then:
as §3, §4, §5, §6

The test system of another data set is healthy human volunteer. Nature of the data set: Rectal micro-enema in a healthy human volunteer, urinary excretion. The following applies: 100 mg allopurinol equivalents. The data set is classed as in vivo. On the procedure:
The dose given (2 ml of a 0.5% methylcellulose solution containing 118 mg/ml of the prodrug) corresponded to 100 mg of allopurinol. Urine was collected over 5 days and aliquots were assayed for allopurinol and oxipurinol by a specific HPLC assay.

For data set [13] the following is noted: in vivo; cited from earlier work.

Converted amounts (≈) assume the structure as drawn. Structures can show the parent of a compound that is named as a salt. Where two headings read alike, the source gives them in different places.

The values that follow come from patent US4694006A, “Acyl- or acyloxymethyl-allopurinol prodrugs” (priority 1983, dated 1987).

As to `Oc1ncnc2[nH]ncc12` [Allopurinol, allopurinol], the solubility in data set [1] worked out at 500 µg/mL (≈ 3.67 mM). Moreover, the “log P” value in [2] (Between octanol and water) is -0.55. In addition, the “plasma levels of allopurinol after intravenous administration” value in the data set on rabbits [3] (all blood sampling times) is recorded as “below 1 μg/ml”. For the same compound, the dose excreted in [4] amounted to 67%. The solubility in water result in data set [5] (25° C) is given as “about 0.5 mg/ml”. In [6], the “dose recovered in the urine as intact allopurinol” value is given as 12% and the “dose recovered in the urine, total” value is given as “about 88%”. The “amount absorbed from suppository preparations administered rectally” value with man [7] is < 5%. In addition, in the data set with man [8] (man, oral tablets (Appelbaum et al., 1982)), the “absolute systemic bioavailability of oral tablets” value was “about 70%”. Besides, the “oral dose excreted in the stool unchanged” value in the data set with man [8] (oral dose (Elion et al., 1966)) is on record as 20-25%. Besides, the Fa in data set [9] is < 2%. Moreover, the “plasma levels of allopurinol after rectal administration” value in the data set on rabbits [10] was “below 1 μg/ml”.

For the compound `CCN(CC)CC(=O)OCn1ncc2c(=O)[nH]cnc21`, the half-life in data set [11] is 49 min. Also, the half-life in [12] is 10 min. Also, in data set [1], the “aqueous solubility relative to the parent compound (factor)” value is given as 5,000 and the solubility is > 500000 µg/mL. The “bioavailability of the parent drug from the prodrug given rectally” value with healthy human volunteer was “virtually complete bioavailability”. In addition, the “bioavailability of the parent drug from the prodrug given intravenously” value in the data set with rabbits [3] was “almost complete bioavailability”.

With `O=C(OCn1ncc2c(=O)[nH]cnc21)c1cccnc1` [1-(Nicotinoyloxymethyl)allopurinol], the half-life in data set [11] was 1560 min; in data set [12] it was 21 min. For the same compound, in data set [1], the solubility turned out to be 93 µg/mL (≈ 0.343 mM). Further, in data set [2], the “log P” value was 0.27.

`CCN(CC)C(C)C(=O)OCn1ncc2c(=O)[nH]cnc21` (racemic) [1-(DL-N,N-Diethylalanyloxymethyl)allopurinol (hydrochloride)]: the half-life was 21 min in [11] and 17 min in data set [12]. Moreover, the solubility in data set [1] was > 400000 µg/mL. Also, in data set [2] (pH 8), the “log P” value is listed as 0.72.

As to `CN(C)CC(=O)OCn1ncc2c(=O)[nH]cnc21` [1-(N,N-Dimethylglycyloxymethyl)allopurinol (hydrochloride)], the results for the half-life in data set [11] and in data set [12] were 72 min and 7 min, respectively. In data set [1], the solubility was > 500000 µg/mL. Further, the log partition coefficient (log P) in data set [2] (pH 8) is -0.49.

With `Oc1ncnc2[nH]ncc12` [sodium salt of allopurinol], the “pH of infusion fluids” value in data set [5] (sodium salt of allopurinol at 0.5-1%) is given as 10.5-11.5. Moreover, in [13], the “adverse effects of administration of infusion fluids” value was “may cause thrombophlebitis or perivascular inflammation”.
